# In patent US9353101B2 (Merck Sharp & Dohme Corp., priority 2012, dated 2016):
# Target: CETP (Homo sapiens (Human), UniProt P11597)
# Test: In vitro radioactive assay of CETP-catalyzed CE and TG transfer (RTA assay), 95% human serum
# Assay type: biochemical
# Settings: RTA assay in 95% human serum; read-out: RTA IC50 (CETP Inhibition)
# Protocol: In Vitro Radioactive Assays of CETP-Catalyzed CE and TG Transfer (RTA Assay)
# Reagents and sources are: [3H] cholesteryl oleate (GE #TRK.886), [3H] Triolein (Perkin-Elmer NET-431), Butylated hydroxyl toluene (Aldrich, #D4740-4), DOPC (Sigma, # P6354), Sodium Bromide (Fisher scientific #S255-500), PEG 8000 (Fisher, #BP233-1), and human HDL (Intracel Corp #RP-036).
# An in vitro assay for determining IC50's to identify compounds that inhibit CETP transfer activity is performed based on a modification of a published method (Morton and Zilversmit, (1981) A plasma inhibitor of triglyceride and cholesteryl ester transfer activities, J. Biol. Chem. 256(23), 11992-11995). The ability of inhibitors to alter CETP activity is performed using two different assays: one using recombinant CETP and one using an endogenous plasma source of CETP. Both assays measure the transfer of [3H] cholesteryl oleate or [3H] triolein from exogenous LDL to HDL.
# Radiolabeled donor particles are generated by first combining 100 μl of 200 μM butylated hydroxyl toluene in CHCl3, 216 μL of 21.57 mM DOPC in EtOH, and either 500 μCi [3H]-triolein (Perkin Elmer #NET-431) or 500 μCi [3H]-cholesteryl oleate (GE #TRK886) in a glass tube. Reagents are mixed, dried under nitrogen, and then resuspended in 2 mL of 50 mM Tris, 27 μM EDTA at pH 7.4. After a brief vortex, the solution is sonicated until clear and mixed with 20 mL of fresh human serum. The mixture is incubated overnight at 37° C. The [3H] labeled LDL substrate is separated at 1.063 g/ml density by sequential ultracentrifugal flotation in NaBr according to the method by (Havel, Eder et al. 1955; Chapman, Goldstein et al. 1981). Once isolated the particles are dialyzed 3× in CETP buffer (50 mM Tris, pH 7.4, 100 mM NaCl, 1 mM EDTA). Human HDL is purchased from Intracel and used as the acceptor particles.
# Transfer assays are performed in a 96 or 384-well v-bottom polypropylene plate. For the RTA using recombinant CETP (2% RTA), an assay cocktail is prepared with the final concentrations 128 μg/mL HDL, 20 nM rCETP, 2% human serum, and 1×CETP buffer. 1 μL of each test compound diluted in DMSO is added to 47 μL of assay cocktail per well and incubated at 37° C. for 1 hour. To initiate the transfer reaction, 2 μL radiolabeled LDL is added. After an additional 60 min of incubation at 37° C., the transfer action is terminated by precipitation of LDL with an equal volume of 20% W/V PEG 8000. The plates are centrifuged at 2000 rpm for 30 minutes at 4° C. A 40 μL aliquot of the HDL-containing supernatant is transferred to a Packard Optiplate™ with 200 μL of MicroScint™ 20. After mixing, plates are counted by liquid scintillation. Counts present in the supernatant for blanks (wells containing only HDL acceptor, CETP buffer and DMSO) are subtracted from those containing test compounds and used to correct for non-specific transfer.
# For the transfer assay using endogenous CETP from serum (95% RTA), the same procedure is used except that human serum is added such that a final concentration of serum of 95% of the total assay volume is achieved, yielding a concentration of approximately 15 nM endogenous CETP in the assay. This is then combined with HDL and CETP buffer and the reaction proceeds as above and is terminated as described.
# Comparison of the counts of samples with inhibitors to an uninhibited (DMSO only) positive control yield a percent inhibition. A plot of percent inhibition vs. log of inhibitor concentration, fit to a Sigmoidal 4 parameter equation is used to calculate IC50.
# Starting materials are commercially available or are made using known procedures or as shown below. The examples may be synthesized using the general schemes provided below. The data reported for the examples below were obtained using the RTA assay in 95% human serum.
# Sequence of CETP (P11597 18-493 limits assumed): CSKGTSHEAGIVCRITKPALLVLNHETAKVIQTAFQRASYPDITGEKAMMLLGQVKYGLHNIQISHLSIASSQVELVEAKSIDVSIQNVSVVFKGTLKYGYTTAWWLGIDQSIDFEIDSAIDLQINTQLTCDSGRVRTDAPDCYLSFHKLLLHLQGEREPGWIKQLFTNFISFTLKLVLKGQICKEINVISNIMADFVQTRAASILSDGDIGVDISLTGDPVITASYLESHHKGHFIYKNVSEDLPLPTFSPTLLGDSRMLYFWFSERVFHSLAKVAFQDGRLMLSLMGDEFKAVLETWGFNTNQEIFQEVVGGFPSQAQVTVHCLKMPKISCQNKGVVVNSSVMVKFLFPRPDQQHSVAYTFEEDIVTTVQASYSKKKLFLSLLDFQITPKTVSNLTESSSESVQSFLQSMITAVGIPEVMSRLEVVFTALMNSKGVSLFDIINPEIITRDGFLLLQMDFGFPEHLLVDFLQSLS
row,SMILES,IC50 [µM]
1,"COc1ncc(-c2c(C)n[nH]c2C)cc1-c1cnc(N2CC(F)(F)C2)nc1CN1C(=O)O[C@H](c2cc(C(F)(F)F)cc(C(F)(F)F)c2)[C@@H]1C [Example 23, (4S,5R)-5-[3,5-Bis(trifluoromethyl)phenyl]-3-({2-(3,3-difluoroazetidin-1-yl)-5-[5-(3,5dimethyl-1H-pyrazol-4-yl)-2-methoxypyridin-3-yl]pyrimidin-4-yl}methyl)-4-methyl-1,3-oxazolidin-2-one]",0.015
2,COc1ncc(-c2c(C)n[nH]c2C)cc1-c1cnc(N2CC(O)C2)nc1CN1C(=O)O[C@H](c2cc(C(F)(F)F)cc(C(F)(F)F)c2)[C@@H]1C [Example 24],0.332
3,COc1ncc(-c2c(C)n[nH]c2C)cc1-c1cnc(N2CCCC2)nc1CN1C(=O)O[C@H](c2cc(C(F)(F)F)cc(C(F)(F)F)c2)[C@@H]1C [Example 25],0.02
4,COc1ncc(-c2c(C)n[nH]c2C)cc1-c1cnc(N2CCOCC2)nc1CN1C(=O)O[C@H](c2cc(C(F)(F)F)cc(C(F)(F)F)c2)[C@@H]1C [Example 26],0.023
5,COc1ncc(-c2c(C)n[nH]c2C)cc1-c1cnc(N2CCC2)nc1CN1C(=O)O[C@H](c2cc(C(F)(F)F)cc(C(F)(F)F)c2)[C@@H]1C [Example 27],0.019
6,"COc1ncc(C(C)C)cc1-c1cnc(N2CC(F)(F)C2)nc1CN1C(=O)O[C@H](c2cc(C(F)(F)F)cc(C(F)(F)F)c2)[C@@H]1C [Example 28, (4S,5R)-5-[3,5-Bis(trifluoromethyl)phenyl]-3-{[2-(3,3-difluoroazetidin-1-yl)-5-(5-isopropyl-2-methoxypyridin-3-yl)pyrimidin-4-yl]methyl}-4-methyl-1,3-oxazolidin-2-one]",0.005
7,COc1ncc(C(C)C)cc1-c1cnc(N2[C@H](C)CC[C@H]2C)nc1CN1C(=O)O[C@H](c2cc(C(F)(F)F)cc(C(F)(F)F)c2)[C@@H]1C [Example 29],0.43
8,COc1ncc(C(C)C)cc1-c1cnc(N2CCC[C@@H]2C)nc1CN1C(=O)O[C@H](c2cc(C(F)(F)F)cc(C(F)(F)F)c2)[C@@H]1C [Example 30],0.018
9,COc1ncc(C(C)C)cc1-c1cnc(N2CCC2)nc1CN1C(=O)O[C@H](c2cc(C(F)(F)F)cc(C(F)(F)F)c2)[C@@H]1C [Example 31],0.005
10,"COc1ncc(-c2c(C)cc(C(=O)O)cc2C)cc1-c1cnc(N2CC(F)C2)nc1CN1C(=O)O[C@H](c2cc(C(F)(F)F)cc(C(F)(F)F)c2)[C@@H]1C [Example 32, 4-{5-[4-({(4S,5R)-5-[3,5-Bis(trifluoromethyl)phenyl]-4-methyl-2-oxo-1,3-oxazolidin-3-yl}methyl)-2-(3-fluoroazetidin-1-yl)pyrimidin-5-yl]-6-methoxypyridin-3-yl}-3,5-dimethylbenzoic acid]",0.007
11,"COc1ncc(-c2c(C)cc(-c3n[nH]c(=O)o3)cc2C)cc1-c1cnc(N2CC(F)C2)nc1CN1C(=O)O[C@H](c2cc(C(F)(F)F)cc(C(F)(F)F)c2)[C@@H]1C [Example 33, 5-(4-{5-[4-({(4S,5R)-5-[3,5-Bis(trifluoromethyl)phenyl]-4-methyl-2-oxo-1,3-oxazolidin-3-yl}methyl)-2-(3-fluoroazetidin-1-yl)pyrimidin-5-yl]-6-methoxypyridin-3-yl}-3,5-dimethylphenyl)-1,3,4-oxadiazol-2(3H)-one]",0.008
12,"COc1ncc(-c2c(C)cc(C(=O)O)cc2C)cc1-c1cnc(N2CCOCC2)nc1CN1C(=O)O[C@H](c2cc(C(F)(F)F)cc(C(F)(F)F)c2)[C@@H]1C [Example 34, 4-{5-[4-({(4S,5R)-5-[3,5-Bis(trifluoromethyl)phenyl]-4-methyl-2-oxo-1,3-oxazolidin-3-yl}methyl)-2-(morpholin-4-yl)pyrimidin-5-yl]-6-methoxypyridin-3-yl}-3,5-dimethylbenzoic acid]",0.01
13,"COc1ncc(-c2c(C)cc(-c3n[nH]c(=O)o3)cc2C)cc1-c1cnc(N2CCOCC2)nc1CN1C(=O)O[C@H](c2cc(C(F)(F)F)cc(C(F)(F)F)c2)[C@@H]1C [Example 35, 5-(4-{5-[4-({(4S,5R)-5-[3,5-Bis(trifluoromethyl)phenyl]-4-methyl-2-oxo-1,3-oxazolidin-3-yl}methyl)-2-(morpholin-4-yl)pyrimidin-5-yl]-6-methoxypyridin-3-yl}-3,5-dimethylphenyl)-1,3,4-oxadiazol-2(3H)-one]",0.01
14,"COc1ncc(-c2ccc(C(=O)O)cc2C)cc1-c1cnc(N2CC(F)C2)nc1CN1C(=O)O[C@H](c2cc(C(F)(F)F)cc(C(F)(F)F)c2)[C@@H]1C [Example 36, 4-{5-[4-({(4S,5R)-5-[3,5-Bis(trifluoromethyl)phenyl]-4-methyl-2-oxo-1,3-oxazolidin-3-yl}methyl)-2-(3-fluoroazetidin-1-yl)pyrimidin-5-yl]-6-methoxypyridin-3-yl}-3-methylbenzoic acid]",0.012
15,"COc1ncc(-c2ccc(C(=O)Nc3nnn[nH]3)cc2C)cc1-c1cnc(N2CC(F)C2)nc1CN1C(=O)O[C@H](c2cc(C(F)(F)F)cc(C(F)(F)F)c2)[C@@H]1C [Example 37, 4-{5-[4-({(4S,5R)-5-[3,5-Bis(trifluoromethyl)phenyl]-4-methyl-2-oxo-1,3-oxazolidin-3-yl}methyl)-2-(3-fluoroazetidin-1-yl)pyrimidin-5-yl]-6-methoxypyridin-3-yl}-3-methyl-N-(1H-tetrazol-5-yl)benzamide]",0.01
16,"COc1ncc(-c2ccc(-c3n[nH]c(=O)o3)cc2C)cc1-c1cnc(N2CC(F)C2)nc1CN1C(=O)O[C@H](c2cc(C(F)(F)F)cc(C(F)(F)F)c2)[C@@H]1C [Example 38, 5-(4-{5-[4-({(4S,5R)-5-[3,5-Bis(trifluoromethyl)phenyl]-4-methyl-2-oxo-1,3-oxazolidin-3-yl}methyl)-2-(3-fluoroazetidin-1-yl)pyrimidin-5-yl]-6-methoxypyridin-3-yl}-3-methylphenyl)-1,3,4-oxadiazol-2(3H)-one]",0.012
17,"COc1ncc(-c2ccc(C(=O)O)cc2C)cc1-c1cnc(N2CCOCC2)nc1CN1C(=O)O[C@H](c2cc(C(F)(F)F)cc(C(F)(F)F)c2)[C@@H]1C [Example 39, 4-{5-[4-({(4S,5R)-5-[3,5-Bis(trifluoromethyl)phenyl]-4-methyl-2-oxo-1,3-oxazolidin-3-yl}methyl)-2-(morpholin-4-yl)pyrimidin-5-yl]-6-methoxypyridin-3-yl}-3-methylbenzoic acid]",0.013
18,"COc1ncc(-c2ccc(-c3n[nH]c(=O)o3)cc2C)cc1-c1cnc(N2CCOCC2)nc1CN1C(=O)O[C@H](c2cc(C(F)(F)F)cc(C(F)(F)F)c2)[C@@H]1C [Example 40, 5-(4-{5-[4-({(4S,5R)-5-[3,5-Bis(trifluoromethyl)phenyl]-4-methyl-2-oxo-1,3-oxazolidin-3-yl}methyl)-2-(morpholin-4-yl)pyrimidin-5-yl]-6-methoxypyridin-3-yl}-3-methylphenyl)-1,3,4-oxadiazol-2(3H)-one]",0.029
19,"COc1ncc(-c2ccc(C(=O)Nc3nnn[nH]3)cc2C)cc1-c1cnc(N2CCOCC2)nc1CN1C(=O)O[C@H](c2cc(C(F)(F)F)cc(C(F)(F)F)c2)[C@@H]1C [Example 41, 4-{5-[4-({(4S,5R)-5-[3,5-Bis(trifluoromethyl)phenyl]-4-methyl-2-oxo-1,3-oxazolidin-3-yl}methyl)-2-(morpholin-4-yl)pyrimidin-5-yl]-6-methoxypyridin-3-yl}-3-methyl-N-(1H-tetrazol-5-yl)benzamide]",0.011
